US20220354911A1, “TREATMENT OF TUMORS BY A COMBINATION OF AN ONCOLYTIC ADENOVIRUS, A CDK4/6 INHIBITOR AND A FURTHER THERAPEUTICALLY ACTIVE AGENT” (KLINIKUM RECHTS DER ISAR DER TECHNISCHEN UNIVERSITÄT MÜNCHEN, priority 2019, published 2022)

Assays:
T24 cells = assay: Potency assay (SRB), XVir-N-31, Palbociclib and JQ-1; assay type: cell-based, human
Protocol: 5000 T24 cells were seeded in 12 well plates and grown in 1 ml RPMI-Medium containing 10% FCS. Next day cells were treated with 500 nM Palbociclib and 300 nM JQ-1. 24 hours post treatment cells were infected with indicated MOIs of XVir-N-31 in 200 μl RPMI-Medium containing no FCS. After 1 hour 800 μl RPMI-Medium containing 10% FCS were added into each well. In addition, 500 nM Palbociclib and 300 nM JQ-1 were added to the medium. SRB-Staining took place 5 days post infection. Mock treated cells were set 100% cell survival.

XVir-N-31 = XVir-N-31 replication in UMUC-3 cells, JQ-1 priming or concurrent treatment (fiber qPCR); assay type: cell-based, Mastadenovirus, Type C, Serotype 5; settings: UMUC-3, 10 MOI, 100 nM or 500 nM JQ-1, 24 hours post infection
Protocol: 2.5×10^4 UMUC-3 cells were seeded in 12 well plates in DMEM medium. The following day the cells were treated with JQ-1 (priming) or DMEM medium. At the next morning the cells were infected with 10 MOI XVir-N-31. One hour after infection DMEM Medium containing JQ-1 was added on the cells (concurrent treatment). After each 4 and 24 hours, the cells were washed once with PBS and 200 μl of SDS DNA Lysis Buffer was added. The cells were incubated with Proteinase K for at least 1 hour before undergoing a phenol-chloroform-isoamylalcohol purification. The DNA was diluted in 1×TE buffer and the concentration of the DNA was determined using a Nanodrop. For each sample a solution of 15 ng/μl was prepared and a RT-qPCR using 75 ng of DNA and a GoTaq Master mix. Specific fiber forward and reverse primers were used and for the calculation of the Δ ct value specific Actin primers were used as well. For each sample 3 Fiber and 3 Actin values were measured. The calculation was done in excel and each 24 hours value was calculated based on its 4 hours value (initial viral entry, before replication).

[1] = tested on: RB, phospho-RB, E2F-1, Hexim1; assay: Western blot of cellular target proteins after JQ-1 and Palbociclib; assay type: cell-based, human
Protocol: 1-2×10^6 UMUC-3 or RT-112 cells were seeded in 10 cm plates in DMEM medium and 24 hours post seeding treated with respective small molecular inhibitors. 24 hours post treatment, lysates of total proteins were taken using an SDS-buffer. BCA Assay was applied to adjust equivalent protein concentrations. Then, protein samples were supplemented with Lämmli buffer and separated via SDS-PA gelelectrophoresis on 10% PA-Gels. Samples were blotted onto PVDF membranes using a BioRAD Wet Tank System. These membranes were blocked with TBS-Tween buffer containing 5% Skim milk powder for 1 hour at room temperature. Incubation with primary antibodies was conducted over night at 4° C. and with HRP-conjugated secondary antibodies for 1 hour at room temperature. Chemiluminescence was detected using ECL prime (Pierce) with the ChemiDoc Imaging System (BioRad). Figures were designed in Adobe® Illustrator and evaluation was performed with ImageLab.

SK-N-MC cells = assay: Potency assay (SRB), XVir-N-31, Abemaciclib and JQ-1; assay type: cell-based; settings: CDK 4/6 (Abemaciclib) resistant SK-N-MC cells, 200 nM Abemaciclib + 500 nM JQ-1, XVir-N-31, 5 days post infection
Protocol: 100,000 SK-N-MC cells/well were seeded in 12-well plates and grown in RPMI Medium containing 10% FCS at 5% CO2 at 37° C. Cells were treated with 200 nM Abemaciclib+500 nM JQ-1 24 hours before and again 1 hour post infection by adding appropriate amount to the medium. Infection of XVir-N-31 took place in 500 μl in RPMI Medium without serum. SRB-Staining took place 5 days post infection. Mock treated cells were set 100% cell survival.

## Cc1sc2c(c1C)C(c1ccc(Cl)cc1)=N[C@@H](CC(=O)OC(C)(C)C)c1nnc(C)n1-2 [JQ-1, thieno-triazolo-1-4-diazepine]
T24 cells; T24, 300 nM JQ-1 alone, 10 and 20 MOI
  cell killing of XVir-N-31, JQ-1 monotherapy: did not increase cell killing
T24 cells; T24, 500 nM Palbociclib, 300 nM JQ-1, low MOIs, 5 days post infection
  cell killing capacity of XVir-N-31 in combination with Palbociclib: increased the cell killing capacity
XVir-N-31
  XVir-N-31 replication, concurrent treatment with JQ-1: crucial for dual therapy success
  XVir-N-31 replication, priming with JQ-1: no beneficial effect
[1]; UMUC-3 and RT-112, 0.2 μM and 0.5 μM, 24 hours post treatment, monotherapy or with Palbociclib
  RB, phospho-RB or E2F-1 protein level: did not show any effects
[1]; UMUC-3 and RT-112, 24 hours post treatment
  Hexim1: downregulated
SK-N-MC cells
  cell killing on addition of JQ-1: did not increase cell killing
